Results taken from ChEMBL document CHEMBL1212926, “Design of potent inhibitors of human RAD51 recombinase based on BRC motifs of BRCA2 protein: modeling and experimental validation of a chimera peptide” (J Med Chem, 2010).
The source made the active and inactive calls. The calls are words filed in the database; no cut-off is given here. Where a SMILES comes first, the peptide text is derived from it.

Columns and labels:
[1] = target: T1, DNA repair protein RAD51 homolog 1 (Homo sapiens) (UniProt Q06609); experiment: Binding affinity to human RAD51 by isothermal titration calorimetry
T1 sequence (whole entry): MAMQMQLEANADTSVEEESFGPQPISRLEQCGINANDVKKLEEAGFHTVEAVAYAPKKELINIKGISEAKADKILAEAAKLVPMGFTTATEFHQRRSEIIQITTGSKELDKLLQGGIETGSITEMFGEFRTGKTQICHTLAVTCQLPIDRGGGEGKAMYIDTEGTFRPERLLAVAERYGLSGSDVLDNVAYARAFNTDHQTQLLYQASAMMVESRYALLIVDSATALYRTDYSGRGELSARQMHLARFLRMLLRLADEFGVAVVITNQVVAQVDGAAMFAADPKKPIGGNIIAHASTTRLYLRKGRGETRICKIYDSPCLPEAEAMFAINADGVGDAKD

[2] = target: T1, DNA repair protein RAD51 homolog 1 (Homo sapiens); experiment: Inhibition of human RAD51-mediated 58-mer single-stranded DNA strand exchange activity at 5 to 15 uM after 1 hr by PAGE
[3] = target: T1, DNA repair protein RAD51 homolog 1 (Homo sapiens); experiment: Binding affinity to human RAD51 at 40 uM by circular dichroism assay
[4] = target: T2, DNA repair protein RAD51 homolog 1 (Homo sapiens, UniProt Q06609); experiment: Inhibition of human RAD51 assessed as concentration required for half dissociation of protein/single-stranded DNA complex formation by fluorescence polarimetry
T2 sequence (Q06609 whole entry): T1 sequence (whole entry)

[5] = target: T2, DNA repair protein RAD51 homolog 1; experiment: Inhibition of human RAD51 assessed as dissociation of protein/single-stranded poly-(d-epsilonA) complex formation by fluorescence polarimetry
[6] = target: T2, DNA repair protein RAD51 homolog 1; experiment: Inhibition of human RAD51 assessed as dissociation of protein/single-stranded oligo(AGT)12 complex formation by fluorescence polarimetry

| SMILES | K [1] [×10⁵ /M] | inhibition [2] | Activity [3] | Ki [4] [nM] | IC50 [5] [nM] | IC50 [6] [nM] |
| --- | --- | --- | --- | --- | --- | --- |
| CC[C@H](C)[C@H](NC(=O)[C@H](CCCCN)NC(=O)[C@@H](NC(=O)[C@H](CCCCN)NC(=O)[C@H](CCCCN)NC(=O)CNC(=O)[C@H](CO)NC(=O)[C@H](CO)NC(=O)[C@@H](NC(=O)[C@H](Cc1cnc[nH]1)NC(=O)[C@H](Cc1ccccc1)NC(=O)CN)[C@@H](C)O)C(C)C)C(=O)N[C@@H](C)C(=O)N[C@@H](CCCCN)C(=O)N[C@@H](CCC(=O)O)C(=O)N[C@@H](CO)C(=O)N[C@@H](CC(C)C)C(=O)N[C@@H](CC(=O)O)C(=O)N[C@@H](CCCCN)C(=O)N[C@H](C(=O)N[C@@H](CCCCN)C(=O)N[C@@H](CC(N)=O)C(=O)N[C@@H](CC(C)C)C(=O)N[C@@H](Cc1ccccc1)C(=O)O)C(C)C | < 0.1 | Active | Active |  |  |  |
| CC[C@H](C)[C@H](NC(=O)[C@H](CCCCN)NC(=O)[C@@H](NC(=O)[C@H](CCCCN)NC(=O)[C@H](CCCCN)NC(=O)CNC(=O)[C@H](CO)NC(=O)[C@H](C)NC(=O)[C@@H](NC(=O)[C@@H](N)Cc1cnc[nH]1)[C@@H](C)O)C(C)C)C(=O)N[C@@H](C)C(=O)N[C@@H](CCCCN)C(=O)N[C@@H](CCC(=O)O)C(=O)N[C@@H](CO)C(=O)N[C@@H](CC(C)C)C(=O)N[C@@H](CC(=O)O)C(=O)N[C@@H](CCCCN)C(=O)N[C@H](C(=O)N[C@@H](CCCCN)C(=O)N[C@@H](CC(N)=O)C(=O)N[C@@H](CC(C)C)C(=O)N[C@@H](Cc1ccccc1)C(=O)N[C@@H](CC(=O)O)C(=O)N[C@@H](CCC(=O)O)C(=O)O)C(C)C (H-HTASGKKVKIAKESLDKVKNLFDE-OH) |  |  | Active |  |  |  |
| CC[C@H](C)[C@H](NC(=O)[C@H](CCCCN)NC(=O)[C@@H](NC(=O)[C@H](CCCCN)NC(=O)[C@H](CCCCN)NC(=O)CNC(=O)[C@H](CO)NC(=O)[C@H](C)NC(=O)[C@@H](NC(=O)[C@H](Cc1ccc(O)cc1)NC(=O)[C@H](Cc1ccccc1)NC(=O)CN)[C@@H](C)O)C(C)C)C(=O)N[C@@H](CO)C(=O)N[C@@H](CCCCN)C(=O)N[C@@H](CCC(=O)O)C(=O)N[C@@H](CO)C(=O)N[C@@H](CC(C)C)C(=O)N[C@@H](CC(=O)O)C(=O)N[C@@H](CCCCN)C(=O)N[C@H](C(=O)N[C@@H](CCCCN)C(=O)N[C@@H](CC(N)=O)C(=O)N[C@@H](Cc1ccccc1)C(=O)N[C@@H](Cc1ccccc1)C(=O)O)C(C)C (H-GFYTASGKKVKISKESLDKVKNFF-OH) |  | Active |  | 750 | 1500 | 1050 |
| CC[C@H](C)[C@H](NC(=O)[C@H](CCCCN)NC(=O)[C@@H](NC(=O)[C@H](CCCCN)NC(=O)[C@H](CCCCN)NC(=O)CNC(=O)[C@H](CO)NC(=O)[C@H](C)NC(=O)[C@@H](NC(=O)[C@H](Cc1cnc[nH]1)NC(=O)[C@H](Cc1ccccc1)NC(=O)CN)[C@@H](C)O)C(C)C)C(=O)N[C@@H](C)C(=O)N[C@@H](CCCCN)C(=O)N[C@@H](CCC(=O)O)C(=O)N[C@@H](CO)C(=O)N[C@@H](CC(C)C)C(=O)N[C@@H](CC(=O)O)C(=O)N[C@@H](CCCCN)C(=O)N[C@H](C(=O)N[C@@H](CCCCN)C(=O)N[C@@H](CC(N)=O)C(=O)N[C@@H](Cc1ccccc1)C(=O)N[C@@H](Cc1ccccc1)C(=O)O)C(C)C | 7.3 | Active | Active | 4200 | 5000 | 2600 |

The remaining lines, values ahead:

| K [1] [×10⁵ /M] | inhibition [2] | Activity [3] | Ki [4] [nM] | IC50 [5] [nM] | IC50 [6] [nM] | SMILES |
| --- | --- | --- | --- | --- | --- | --- |
| 5.2 | Active | Active | 1800 | 2500 | 2000 | CC[C@H](C)[C@H](NC(=O)[C@H](CCCCN)NC(=O)[C@@H](NC(=O)[C@H](CCCCN)NC(=O)[C@H](CCCCN)NC(=O)CNC(=O)[C@H](CO)NC(=O)[C@H](C)NC(=O)[C@@H](NC(=O)[C@H](Cc1cnc[nH]1)NC(=O)[C@H](Cc1ccccc1)NC(=O)CN)[C@@H](C)O)C(C)C)C(=O)N[C@@H](CO)C(=O)N[C@@H](CCCCN)C(=O)N[C@@H](CCC(=O)O)C(=O)N[C@@H](CO)C(=O)N[C@@H](CC(C)C)C(=O)N[C@@H](CC(=O)O)C(=O)N[C@@H](CCCCN)C(=O)N[C@H](C(=O)N[C@@H](CCCCN)C(=O)N[C@@H](CC(N)=O)C(=O)N[C@@H](CC(C)C)C(=O)N[C@@H](Cc1ccccc1)C(=O)O)C(C)C |
| 3.8 | Active | Active | 6000 | 7000 | 2700 | CC[C@H](C)[C@H](NC(=O)[C@H](CCCCN)NC(=O)[C@@H](NC(=O)[C@H](CCCCN)NC(=O)[C@H](CCCCN)NC(=O)CNC(=O)[C@H](CO)NC(=O)[C@H](C)NC(=O)[C@@H](NC(=O)[C@H](Cc1ccc(O)cc1)NC(=O)[C@H](Cc1ccccc1)NC(=O)CN)[C@@H](C)O)C(C)C)C(=O)N[C@@H](C)C(=O)N[C@@H](CCCCN)C(=O)N[C@@H](CCC(=O)O)C(=O)N[C@@H](CO)C(=O)N[C@@H](CC(C)C)C(=O)N[C@@H](CC(=O)O)C(=O)N[C@@H](CCCCN)C(=O)N[C@H](C(=O)N[C@@H](CCCCN)C(=O)N[C@@H](CC(N)=O)C(=O)N[C@@H](CC(C)C)C(=O)N[C@@H](Cc1ccccc1)C(=O)O)C(C)C |
